Assay results taken from US5773644A, “Cyclopropyl alkanoic acid derivatives” (G. D. Searle & Co., priority 1997, dated 1998).
Where a name gives a salt, the structure may show the parent alone. Read-outs that look alike come from different tables or passages of the source.

Columns and labels:
[1] = molecular target: T1, Human fibrinogen receptor (αIIb β3) (Homo sapiens, UniProt P05106+P08514); test: Purified IIb/IIIa receptor assay (solid phase receptor assay, competition with biotinylated vitronectin); conditions: inhibition of 50% of maximum binding of 1 nM biotinylated vitronectin; 2 h competition, room temperature, TBS+++ pH 7.4
T1 construct: Human fibrinogen receptor (αIIb β3) was purified from outdated platelets; from tissue; host or cells: outdated platelets (human)
Text: Human fibrinogen receptor (αIIb β3) was purified from outdated platelets. (Pytela, R., Pierschbacher, […]., Suzuki, S., and […] acid adhesion receptors", Methods in Enzymology 144(1987):475-489.) Human vitronectin was purified from fresh frozen plasma as described in Yatohgo, T., Izumi, M., Kashiwagi, H., and Hayashi, M., "Novel purification of vitronectin from human plasma by heparin affinity chromatography," Cell Structure and Function 13(1988):281-292. Biotinylated human vitronectin was prepared by coupling NHS-biotin from Pierce Chemical Company (Rockford, Ill.) to purified vitronectin as previously described. (Charo, […]., Phillips, D. R., Hsu, M. A., Scarborough, R. M., "Inhibition of fibrinogen binding to GP IIb/IIIa by a GP IIIa peptide", J. Biol. Chem. 266(3) (1991): 1415-1421.) Assay buffer, OPD substrate tablets, and RIA grade BSA were obtained from Sigma (St. Louis, Mo.). Anti-biotin antibody was obtained from Calbiochem (La Jolla, Calif.). Linbro microtiter plates were obtained from Flow Labs (McLean, Va.). ADP reagent was obtained from Sigma (St. Louis, Mo.). This assay is essentially the same reported in […]., Bader, R., Byers-Ward, […]., Plow, E. F. and Ruggeri, Z. M., "Increased surface expression of the membrane glycoprotein IIb/IIIa complex induced by platelet activation: Relationships to the binding of fibrinogen and platelet aggregation", Blood 70(1987):475-483. The purified human fibrinogen receptor (αIIb β3) was diluted from stock solutions to 1.0 μg/mL in Tris-buffered saline containing 1.0 mM Ca^++, Mg^++, and Mn^++, pH 7.4 (TBS^+++). The diluted receptor was immediately transferred to Linbro microtiter plates at 100 μL/well (100 ng receptor/well). The plates were sealed and incubated overnight at 4° C. to allow the receptor to bind to the wells. All remaining steps were at room temperature. The assay plates were emptied and 200 μL of 1% RIA grade BSA in TBS^+++ (TBS^+++ /BSA) were added to block exposed plastic surfaces. Following a 2 hour incubation, the assay plates were washed with TBS^+++ using a 96 well plate washer. Logarithmic serial dilution of the test compound and controls were made starting at a stock concentration of 2 mM and using 2 nM biotinylated vitronectin in TBS^+++ /BSA as the diluent. This premixing of labeled ligand with test (or control) ligand, and subsequent transfer of 50 μL aliquots to the assay plate was carried out with a CETUS Propette robot; the final concentration of the labeled ligand was 1 nM and the highest concentration of test compound was 1.0×10^-4 M. The competition occurred for two hours after which all wells were washed with a plate washer as before. Affinity purified horseradish peroxidase labeled goat anti-biotin antibody was diluted 1:3000 in TBS^+++ /BSA and 125 μL were added to each well. After 30 minutes, the plates were washed and incubated with […]/H2 O2 substrate in 100 mM/L citrate buffer, pH 5.0. The plate was read with a microtiter plate reader at a wavelength of 450 nm and when the maximum-binding control wells reached an absorbance of about 1.0, the final A450 were recorded for analysis. The data were analyzed using a macro written for use with the EXCELTM spreadsheet program. The mean, standard deviation, and %CV were determined for duplicate concentrations. The mean A450 values were normalized to the mean of four maximum-binding controls (no competitor added) (B-MAX). The normalized values were subjected to a four parameter curve fit algorithm, [Robard et al., Int.

[2] = molecular target: T2, Human vitronectin receptor (αv β3) (Homo sapiens, UniProt P05106+P06756); test: Vitronectin adhesion assay (solid phase receptor assay, competition with biotinylated vitronectin); assay type: binding
T2 construct: Human vitronectin receptor(αv β3) was purified from human placenta; from tissue; host or cells: human placenta
Procedure: Human vitronectin receptor(αv β3) was purified from human placenta as previously described [Pytela et al., Methods in Enzymology, 144:475-489 (1987)]. Human vitronectin was purified from fresh frozen plasma as previously described [Yatohgo et al., Cell Structure and Function, 13:281-292 (1988)]. Biotinylated human vitronectin was prepared by coupling NHS-biotin from Pierce Chemical Company (Rockford, Ill.) to purified vitronectin as previously described [Charo et al., J. Biol. Chem., 266(3):1415-1421 (1991)]. Assay buffer, OPD substrate tablets, and RIA grade BSA were obtained from Sigma (St. Louis, Mo.). Anti-biotin antibody was obtained from Calbiochem (La Jolla, Calif.). Linbro microtiter plates were obtained from Flow Labs (McLean, Va.). ADP reagent was obtained from Sigma (St. Louis, Mo.). This assay was essentially the same as previously reported [Niiya et al., Blood, 70:475-483 (1987)]. The purified human vitronectin receptor (αv β3) was diluted from stock solutions to 1.0 μg/mL in Tris-buffered saline containing 1.0 mM Ca^++, Mg^++, and Mn^++, pH 7.4 (TBS^+++). The diluted receptor was immediately transferred to Linbro microtiter plates at 100 μL/well (100 ng receptor/well). The plates were sealed and incubated overnight at 4° C. to allow the receptor to bind to the wells. All remaining steps were at room temperature. The assay plates were emptied and 200 μL of 1% RIA grade BSA in TBS^+++ (TBS^+++ /BSA) were added to block exposed plastic surfaces. Following a 2 hour incubation, the assay plates were washed with TBS^+++ using a 96 well plate washer. Logarithmic serial dilution of the test compound and controls were made starting at a stock concentration of 2 mM and using 2 nM biotinylated vitronectin in TBS^+++ /BSA as the diluent. This premixing of labeled ligand with test (or control) ligand, and subsequent transfer of 50 μL aliquots to the assay plate was carried out with a CETUS Propette robot; the final concentration of the labeled ligand was 1 nM and the highest concentration of test compound was 1.0×10^-4 M. The competition occurred for two hours after which all wells were washed with a plate washer as before. Affinity purified horseradish peroxidase labeled goat anti-biotin antibody was diluted 1:3000 in TBS^+++ /BSA and 125 μL were added to each well. After 30 minutes, the plates were washed and incubated with OPD/H2 O2 substrate in 100 mM/L Citrate buffer, pH 5.0. The plate was read with a microtiter plate reader at a wavelength of 450 nm and when the maximum-binding control wells reached an absorbance of about 1.0, the final A450 were recorded for analysis. The data were analyzed using a macro written for use with the EXCEL™ spreadsheet program. The mean, standard deviation, and %CV were determined for duplicate concentrations. The mean A450 values were normalized to the mean of four maximum-binding controls (no competitor added) (B-MAX). The normalized values were subjected to a four parameter curve fit algorithm [Rodbard et al., Int.

[3] = inhibition of 50% of maximum binding of 1 nM biotinylated vitronectin, 2 h competition, room temperature, TBS+++ pH 7.4, read-out: AVB3 IC50

Row | Molecule | IC50 [1] [nM] | IC50 [2, 3] [nM] | IC50 ([2]; positive control included on each plate, stated range, read-out: αv β3 antagonist IC50 (positive control)) [nM]
1 | NC(=O)N=C(N)Nc1cccc(C(=O)Nc2ccc(C3CC3C(=O)O)cc2)c1 (stereo not drawn) [Example 8, 2-[4-[[[3-[(amino[(aminocarbonyl)imino]methyl]amino]phenyl]carbonyl]amino]phenyl]cyclopropanecarboxylic acid, trifluoroacetate salt] | 13100 | 1380 | –
2 | N=C(N)Nc1cc(C(=O)Nc2ccc(C3CC3C(=O)O)cc2)cc(C(F)(F)F)c1 (stereo not drawn) [Example 6, 2-[4-[[[3-[(aminoiminomethyl)amino]-5-(trifluoromethyl)phenyl]carbonyl]amino]phenyl]cyclopropanecarboxylic acid, trifluoroacetate salt] | 9700 | 122 | –
3 | 2-[3-[[[[3-[(aminoiminomethyl)amino]phenyl]carbonyl]amino]methyl]phenyl]cyclopropanecarboxylic acid, trifluoroacetate salt [Example 3] | 5280 | 923 | –
4 | N=C(N)NCCCCC(=O)NCC(=O)NC(CC(=O)O)c1cccnc1 (stereo not drawn) [β-[[2-[[5-[(aminoiminomethyl)amino]-1-oxopentyl]amino]-1-oxoethyl]amino]-3-pyridinepropanoic acid, reference compound] | – | – | 3 to 10

More lines, in order of falling IC50 [1], values ahead:

Row | IC50 [1] [nM] | IC50 [2, 3] [nM] | IC50 ([2]; positive control included on each plate, stated range, read-out: αv β3 antagonist IC50 (positive control)) [nM] | Molecule
5 | 4800 | 19 | – | O=C(Nc1ccc(C2CC2C(=O)O)cc1)c1cccc(NC2=NCCCN2)c1 (stereo not drawn) [Example 7, 2-[4-[[[3-[(1,4,5,6-tetrahydropyrimidin-2-yl)amino]phenyl]carbonyl]amino]phenyl]cyclopropanecarboxylic acid, trifluoroacetate salt]
6 | 3650 | 525 | – | CCOC(=O)C1CC1c1ccc(NC(=O)c2cccc(NC(=N)N)c2)cc1 (stereo not drawn) [Example 1, ethyl 2-[4-[[[3-[(aminoiminomethyl)amino]phenyl]carbonyl]amino]phenyl]cyclopropanecarboxylate, monohydrate trifluoroacetate salt]
7 | 2890 | 81.1 | – | COc1cc(NC(=O)c2cccc(NC(=N)N)c2)ccc1C1CC1C(=O)O (stereo not drawn) [Example 5, 2-[4-[[[3-[(aminoiminomethyl)amino]phenyl]carbonyl]amino]-2-methoxyphenyl]cyclopropanecarboxylic acid, trifluoroacetate salt]
8 | 533 | 30.5 | – | N=C(N)Nc1cccc(C(=O)Nc2ccc(C3CC3C(=O)O)cc2)c1 (stereo not drawn) [Example 2, 2-[4-[[[3-[(aminoiminomethyl)amino]phenyl]carbonyl]amino]phenyl]cyclopropanecarboxylic acid, trifluoroacetate salt]
